In the supplement of paper PMC11451515:

System: SEM cells
Assay: cell viability relative to DMSO control; higher = less cytotoxic
Conditions: 48 h
Summary of the method: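 Viability is expressed as a percentage of DMSO wells within each plate, and cell-free wells serve as background. Seeding densities in the 1536-well plates (5 μl) were 500 cells/well for NOMO1 or SEM leukemia cells and 1000 cells/well for P12-Ichikawa. Each line was adapted for at least four passages in each medium. Library compounds in DMSO were pin-dosed at 47 μM to 0.79 nM (11 points, threefold), and CellTiter-Glo One luminescence was read after 48 h at 37°C.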

[1] = HPLM + 10% dialyzed FBS, 0.000781 µM
[2] = HPLM + 10% dialyzed FBS, 0.00234 µM
[3] = HPLM + 10% dialyzed FBS, 0.00702 µM
[4] = HPLM + 10% dialyzed FBS, 0.0211 µM
[5] = HPLM + 10% dialyzed FBS, 0.0632 µM
[6] = HPLM + 10% dialyzed FBS, 0.19 µM
[7] = HPLM + 10% dialyzed FBS, 0.569 µM
[8] = HPLM + 10% dialyzed FBS, 1.71 µM
[9] = HPLM + 10% dialyzed FBS, 5.12 µM
[10] = HPLM + 10% dialyzed FBS, 15.4 µM
[11] = HPLM + 10% dialyzed FBS, 46.1 µM
[12] = RPMI 5 mM glucose + 10% FBS, 0.000781 µM
[13] = RPMI 5 mM glucose + 10% FBS, 0.00234 µM
[14] = RPMI 5 mM glucose + 10% FBS, 0.00702 µM
[15] = RPMI 5 mM glucose + 10% FBS, 0.0211 µM
[16] = RPMI 5 mM glucose + 10% FBS, 0.0632 µM
[17] = RPMI 5 mM glucose + 10% FBS, 0.19 µM
[18] = RPMI 5 mM glucose + 10% FBS, 0.569 µM
[19] = RPMI 5 mM glucose + 10% FBS, 1.71 µM
[20] = RPMI 5 mM glucose + 10% FBS, 5.12 µM
[21] = RPMI 5 mM glucose + 10% FBS, 15.4 µM
[22] = RPMI 5 mM glucose + 10% FBS, 46.1 µM
[23] = RPMI 5 mM glucose + 10% dialyzed FBS, 0.000781 µM
[24] = RPMI 5 mM glucose + 10% dialyzed FBS, 0.00234 µM
[25] = RPMI 5 mM glucose + 10% dialyzed FBS, 0.00702 µM
[26] = RPMI 5 mM glucose + 10% dialyzed FBS, 0.0211 µM
[27] = RPMI 5 mM glucose + 10% dialyzed FBS, 0.0632 µM
[28] = RPMI 5 mM glucose + 10% dialyzed FBS, 0.19 µM
[29] = RPMI 5 mM glucose + 10% dialyzed FBS, 0.569 µM
[30] = RPMI 5 mM glucose + 10% dialyzed FBS, 1.71 µM
[31] = RPMI 5 mM glucose + 10% dialyzed FBS, 5.12 µM
[32] = RPMI 5 mM glucose + 10% dialyzed FBS, 15.4 µM
[33] = RPMI 5 mM glucose + 10% dialyzed FBS, 46.1 µM

Row | Structure (SMILES) | cell viability [1] [%] | cell viability [2] [%] | cell viability [3] [%] | cell viability [4] [%] | cell viability [5] [%] | cell viability [6] [%] | cell viability [7] [%] | cell viability [8] [%] | cell viability [9] [%] | cell viability [10] [%] | cell viability [11] [%] | cell viability [12] [%] | cell viability [13] [%] | cell viability [14] [%] | cell viability [15] [%] | cell viability [16] [%] | cell viability [17] [%] | cell viability [18] [%] | cell viability [19] [%] | cell viability [20] [%] | cell viability [21] [%] | cell viability [22] [%] | cell viability [23] [%] | cell viability [24] [%] | cell viability [25] [%] | cell viability [26] [%] | cell viability [27] [%] | cell viability [28] [%] | cell viability [29] [%] | cell viability [30] [%] | cell viability [31] [%] | cell viability [32] [%] | cell viability [33] [%]
1 | Oc1cccc(-c2nc(N3CCOCC3)c3oc4ncccc4c3n2)c1 | 108 | 96.3 | 102 | 99.1 | 92.6 | 80.7 | 54.8 | 54.5 | 61.5 | 57.3 | 5.23 | 102 | 102 | 120 | 106 | 93.3 | 77.9 | 58.4 | 60.9 | 8.23 | 6.63 | 4.34 |  |  |  |  |  |  |  |  |  |  | 
2 | CN(C)CCN(C)C(=O)c1ccc(NC(=O)Nc2ccc(-c3nc(N4CCOCC4)c4ccn(CC(F)(F)F)c4n3)cc2)cc1 | 104 | 100 | 120 | 111 | 88 | 63.9 | 65.8 | 48.6 | 52.7 | 50.2 | 54.3 | 106 | 81.7 | 96.2 | 117 | 73.7 | 48 | 49.2 | 45.9 | 45.8 | 43.6 | 48.7 | 112 | 110 | 112 | 113 | 87.6 | 75.5 | 63.2 | 60.1 | 56.6 | 51 | 53.3
3 | O=C(c1ccc(F)c(F)c1Nc1ccc(I)cc1F)N1CC(O)([C@@H]2CCCCN2)C1 | 75.2 | 92.2 | 98.2 | 99.8 | 85.4 | 83.6 | 105 | 97 | 69.2 | 71.4 | 60.8 | 98.8 | 88.6 | 100 | 104 | 98.1 | 100 | 92.5 | 99.1 | 77.8 | 71.6 | 55.1 | 82.8 | 96.3 | 97.4 | 111 | 104 | 96.6 | 86.2 | 92.7 | 68.5 | 76.9 | 60.1
4 | COc1cc([C@H]2Oc3cc([C@H]4Oc5cc(O)cc(O)c5C(=O)[C@@H]4O)ccc3O[C@@H]2CO)ccc1O | 63.6 | 105 | 109 | 112 | 117 | 121 | 121 | 105 | 110 | 98.6 | 92.7 | 101 | 118 | 117 | 116 | 121 | 118 | 104 | 120 | 123 | 120 | 108 | 93.5 | 114 | 124 | 124 | 133 | 126 | 124 | 132 | 118 | 120 | 112
5 | O=C(Nc1ncc(SCCN2CCCC2)s1)[C@]1(c2ccc([S+](=O)([O-])C3CC3)cc2)C[C@H]1C1CCCCC1 | 131 | 111 | 120 | 124 | 111 | 108 | 109 | 63.2 | 98.9 | 73.9 | 27.5 | 113 | 117 | 126 | 123 | 120 | 126 | 115 | 71.2 | 123 | 114 | 41.8 | 129 | 106 | 120 | 118 | 117 | 117 | 138 | 51.5 | 110 | 105 | 52.5
6 | CC1=C(CC(=O)O)c2cc(F)ccc2/C1=C\c1ccc([S+](C)[O-])cc1 (stereo not drawn) | 111 | 121 | 130 | 125 | 127 | 125 | 126 | 109 | 108 | 104 | 76.7 | 96.6 | 86.7 | 98.5 | 95.8 | 90.3 | 106 | 83.6 | 90.7 | 79.6 | 71.9 | 63.4 | 126 | 118 | 119 | 118 | 130 | 115 | 105 | 107 | 95.9 | 99.8 | 74.3
7 | COc1ccc(C2Sc3ccccc3N(CCN(C)C)C(=O)C2OC(C)=O)cc1 (stereo not drawn) | 99.2 | 111 | 106 | 115 | 113 | 117 | 115 | 112 | 106 | 112 | 108 | 113 | 109 | 86 | 99.4 | 103 | 111 | 111 | 105 | 99.2 | 110 | 69 | 87.2 | 112 | 99.6 | 101 | 107 | 115 | 107 | 109 | 124 | 95.5 | 85.8
8 | N[S+](=O)([O-])c1cccc2c1C(=O)c1cccc(O)c1C2=O | 84.4 | 95.8 | 98.9 | 84.2 | 91.8 | 91.5 | 61.6 | 59.9 | 53.7 | 44.1 | 3.56 | 95.8 | 96.3 | 102 | 68.9 | 94.7 | 83.2 | 51.1 | 44.2 | 21.9 | 4.54 | 3.13 | 89.4 | 102 | 96.1 | 62.1 | 95.1 | 70 | 40.8 | 33.3 | 18.3 | 24.5 | 3.78
